According to ChEMBL document CHEMBL3217667, “Extended side chain analogues of 8-aminoquinolines: Synthesis and evaluation of antiprotozoal, antimicrobial, -hematin inhibition, and cytotoxic activities” (Medchemcomm, 2011):
pIC50: −log10 of the molar value. In brackets after ≈: the same amount, converted by molar mass. Activity calls are given as the source filed them. The rule behind the calls is not given here.

Assays:
Staphylococcus aureus [1] = test: Antibacterial activity against methicillin-resistant Staphylococcus aureus up to 20 ug/ml; type: functional, organism-based
[2] = test system: Mycobacterium intracellulare; test: Antibacterial activity against Mycobacterium intracellulare up to 20 ug/ml; type: functional, organism-based
Plasmodium falciparum [3] = test: Antimalarial activity against chloroquine-sensitive Plasmodium falciparum D6 by lactate dehydrogenase assay; type: functional, organism-based
[4] = Selectivity index, ratio of IC50 for African green monkey Vero cells to IC50 for chloroquine-sensitive Plasmodium falciparum D6; type: toxicity, cell-based; conditions: read-out: Ratio IC50
Plasmodium falciparum [5] = test: Antimalarial activity against chloroquine-resistant Plasmodium falciparum W2 by lactate dehydrogenase assay; type: functional, organism-based
[6] = Selectivity index, ratio of IC50 for African green monkey Vero cells to IC50 for chloroquine-resistant Plasmodium falciparum W2; type: toxicity, cell-based; conditions: read-out: Ratio IC50
Vero = test: Cytotoxicity against African green monkey Vero cells by neutral red uptake assay; type: cell-based; conditions: Chlorocebus sabaeus
SK-MEL = test: Cytotoxicity against human SK-MEL cells by neutral red uptake assay; type: cell-based
KB = test: Cytotoxicity against human KB cells by neutral red uptake assay; type: cell-based
BT-549 = test: Cytotoxicity against human BT549 cells by neutral red uptake assay; type: cell-based
SK-OV-3 = test: Cytotoxicity against human SKOV3 cells by neutral red uptake assay; type: cell-based
LLC-PK1 = test: Cytotoxicity against pig LLC-PK1 cells by neutral red uptake assay; type: cell-based; conditions: Sus scrofa
[7] = Inhibition of beta-hematin formation after 16 hrs; type: physicochemical
Leishmania donovani = test: Antileishmanial activity against Leishmania donovani promastigotes by Alamar Blue assay; type: functional, organism-based
Plasmodium berghei [8] = test: Antimalarial activity against Plasmodium berghei infected in mouse assessed as reduction in parasitemia at 100 mg/kg/day, po for 4 days measured up to day 14; type: functional
Staphylococcus aureus [9] = test: Antibacterial activity against Staphylococcus aureus; type: functional, organism-based
Staphylococcus aureus [10] = test: Antibacterial activity against methicillin-resistant Staphylococcus aureus; type: functional, organism-based
[11] = test system: Mycobacterium intracellulare; test: Antibacterial activity against Mycobacterium intracellulare; type: functional, organism-based
Cryptococcus neoformans = test: Antifungal activity against Cryptococcus neoformans by broth microdilution assay; type: functional, organism-based
Pseudomonas aeruginosa = test: Antibacterial activity against Pseudomonas aeruginosa; type: functional, organism-based
Escherichia coli = test: Antibacterial activity against Escherichia coli; type: functional, organism-based
Candida albicans = test: Antifungal activity against Candida albicans by broth microdilution assay; type: functional, organism-based
Nakaseomyces glabratus = test: Antifungal activity against Candida glabrata by broth microdilution assay; type: functional, organism-based
Pichia kudriavzevii = test: Antifungal activity against Candida krusei by broth microdilution assay; type: functional, organism-based
Aspergillus fumigatus = test: Antifungal activity against Aspergillus fumigatus by broth microdilution assay; type: functional, organism-based
Plasmodium berghei [12] = test: Antimalarial activity against Plasmodium berghei infected in mouse assessed as reduction in parasitemia at 10 mg/kg/day, po for 4 days measured up to day 7; type: functional, organism-based
Plasmodium berghei [13] = test: Antimalarial activity against Plasmodium berghei infected in mouse assessed as reduction in parasitemia at 25 mg/kg/day, po for 4 days measured up to day 60 relative to control; type: functional; design: scale not given: the % may be the effect or the level left
Plasmodium berghei [14] = test: Antimalarial activity against Plasmodium berghei infected in mouse assessed as reduction in parasitemia at 50 mg/kg/day, po for 4 days measured up to day 60 relative to control; type: functional; design: scale not given: the % may be the effect or the level left
Plasmodium berghei [15] = test: Antimalarial activity against Plasmodium berghei infected in mouse assessed as reduction in parasitemia at 100 mg/kg/day, po for 4 days measured up to day 60 relative to control; type: functional; design: scale not given: the % may be the effect or the level left
[16] = Plasmodium falciparum, D6, read-out: IC50
[17] = Plasmodium falciparum, W2, read-out: IC50

Row | SMILES | selectivity ratio [4] | selectivity ratio [6] | IC50 (Vero) [µg/mL] | IC50 (SK-MEL) [µg/mL] | IC50 (KB) [µg/mL] | IC50 (BT-549) [µg/mL] | IC50 (SK-OV-3) [µg/mL] | IC50 (LLC-PK1) [µg/mL] | pIC50 [7] | IC50 (Leishmania donovani) [µg/mL] | IC90 (Leishmania donovani) [µg/mL] | Activity (Plasmodium berghei [8]) | IC50 (Cryptococcus neoformans) [µg/mL] | MFC (Cryptococcus neoformans) [µg/mL] | MIC (Cryptococcus neoformans) [µg/mL] | Activity (Pseudomonas aeruginosa) | Activity (Escherichia coli) | Activity (Candida albicans) | Activity (Nakaseomyces glabratus) | Activity (Pichia kudriavzevii) | further results
1 | CCCCOc1c(OC)cc(NC(C)CCCNC(C)CCCNC(C)CCCNC(C)CCCN)c2nccc(CC)c12.Cl (stereo unspecified) | > 48.5 | > 68 | > 23.8 | > 23.8 | > 23.8 | > 23.8 | > 23.8 | > 23.8 | 4.97 | 3.2 | 7 | inactive | 8 | 20 | 20 | inactive | inactive | inactive | inactive | inactive | Activity (Staphylococcus aureus [1]): inactive; Activity [2]: inactive; IC50 (Plasmodium falciparum [3]; [16]): 0.49 µg/mL; IC50 (Plasmodium falciparum [5]; [17]): 0.35 µg/mL; IC50 (Staphylococcus aureus [9]): 13.6 µg/mL; MBC (Staphylococcus aureus [9]): 20 µg/mL; MIC (Staphylococcus aureus [9]): 20 µg/mL; IC50 (Staphylococcus aureus [10]): 13.2 µg/mL; MIC (Staphylococcus aureus [10]): 20 µg/mL; IC50 [11]: 15 µg/mL; Activity (Aspergillus fumigatus): inactive
2 | COc1cc(NC(C)CCCNC(C)CCCN)c2nc(C(C)(C)C)ccc2c1.Cl (stereo unspecified) | > 125 | > 198 | > 23.8 | > 23.8 | > 23.8 | > 23.8 | > 23.8 | > 23.8 | 5.12 | 2.8 | 7.2 | 100% | 10 | 20 | 20 | inactive | inactive | inactive | inactive | inactive | Activity [2]: inactive; IC50 (Plasmodium falciparum [3]; [16]): 0.19 µg/mL; IC50 (Plasmodium falciparum [5]; [17]): 0.12 µg/mL; Activity (Plasmodium berghei [12]): Active; Activity (Plasmodium berghei [13]): 100%; Activity (Plasmodium berghei [14]): 100%; Activity (Plasmodium berghei [15]): 100%; IC50 (Staphylococcus aureus [10]): 6.5 µg/mL; MBC (Staphylococcus aureus [10]): 20 µg/mL; MIC (Staphylococcus aureus [10]): 10 µg/mL; Activity (Aspergillus fumigatus): inactive
3 | COc1cc(NC(C)CCCNC(C)CCCNC(C)CCCN)c2nc(C(C)(C)C)ccc2c1.Cl (stereo unspecified) |  |  | > 23.8 | > 23.8 | > 23.8 | > 23.8 | > 23.8 | > 23.8 | < 3.00 | 1.6 | 4 | 100% | 7.5 | 20 | 20 | inactive | inactive | inactive | inactive | inactive | Activity (Staphylococcus aureus [1]): inactive; IC50 (Plasmodium falciparum [3]): Not Active; IC50 (Plasmodium falciparum [5]): Not Active; Activity (Plasmodium berghei [12]): Active; Activity (Plasmodium berghei [13]): 100%; Activity (Plasmodium berghei [14]): 100%; Activity (Plasmodium berghei [15]): 100%; IC50 [11]: 9 µg/mL; MBC [11]: 20 µg/mL; MIC [11]: 20 µg/mL; Activity (Aspergillus fumigatus): inactive
4 | CCCCCOc1c(OC)cc(NC(C)CCCNC(C)CCCNC(C)CCCN)c2nccc(CC)c12.Cl (stereo unspecified) | > 41.7 | > 49.5 | > 23.8 | > 23.8 | > 23.8 | > 23.8 | > 23.8 | > 23.8 | 4.68 | 3.5 | 7 | inactive | 5.5 | 10 | 10 | inactive | inactive | inactive | inactive | inactive | Activity [2]: inactive; IC50 (Plasmodium falciparum [3]; [16]): 0.57 µg/mL; IC50 (Plasmodium falciparum [5]; [17]): 0.48 µg/mL; IC50 (Staphylococcus aureus [9]): 8.6 µg/mL; MBC (Staphylococcus aureus [9]): 20 µg/mL; MIC (Staphylococcus aureus [9]): 20 µg/mL; IC50 (Staphylococcus aureus [10]): 9.5 µg/mL; MBC (Staphylococcus aureus [10]): 20 µg/mL; MIC (Staphylococcus aureus [10]): 20 µg/mL; IC50 [11]: 16.6 µg/mL; MIC [11]: 20 µg/mL; Activity (Aspergillus fumigatus): inactive
5 | N=C(N)c1ccc(OCCCCCOc2ccc(C(=N)N)cc2)cc1 [PENTAMIDINE] |  |  |  |  |  |  |  |  |  |  | 3.8 (≈ 11.2 µM) |  |  |  |  |  |  |  |  |  | 
6 | C[C@@H]1CC[C@H]2[C@@H](C)C(=O)O[C@@H]3O[C@@]4(C)CC[C@@H]1[C@]32OO4 [ARTEMISININ] | 1560 | 2640 |  |  |  |  |  |  |  |  |  |  |  |  |  |  |  |  |  |  | 
